Data as given in patent US20240368506A1, “Manufacturing a Non-Alcoholic Distilled Spirit and Functional Ingredient” (priority 2022, published 2024).

Assays:
MAO B = biological target: T1, MAO B (Homo sapiens, UniProt P27338); assay: MAO B inhibitory activity of Don Julio Añejo or 40% ethanol spiked with terpenes; format: biochemical; conditions: terpene at 0.5% (v/v) in tequila (40% ABV) and in 40% ethanol
T1 sequence (P27338 1-520): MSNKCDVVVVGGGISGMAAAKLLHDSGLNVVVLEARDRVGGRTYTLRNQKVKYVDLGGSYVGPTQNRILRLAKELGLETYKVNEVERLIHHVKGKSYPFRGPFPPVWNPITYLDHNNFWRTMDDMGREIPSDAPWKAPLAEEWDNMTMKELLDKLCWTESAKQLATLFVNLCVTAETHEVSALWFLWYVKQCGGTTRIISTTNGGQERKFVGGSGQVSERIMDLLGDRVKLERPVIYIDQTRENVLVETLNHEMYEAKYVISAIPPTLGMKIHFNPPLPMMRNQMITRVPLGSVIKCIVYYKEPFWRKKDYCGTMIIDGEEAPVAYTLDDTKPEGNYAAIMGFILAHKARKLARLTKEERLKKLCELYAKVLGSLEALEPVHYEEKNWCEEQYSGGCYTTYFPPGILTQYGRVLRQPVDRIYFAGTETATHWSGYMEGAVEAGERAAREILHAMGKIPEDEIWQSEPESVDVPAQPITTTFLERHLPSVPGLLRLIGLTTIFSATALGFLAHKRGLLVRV
Method: (§1) The effect terpenes on MAOI activity in tequila was evaluated in the experiment from Table 3. Terpenes were added to 40% ethanol and tequila (40% ABV) at 0.5%. (v/v) and assayed for MAO inhibitory activity.

MAO A = biological target: T2, MAO A (Homo sapiens, UniProt P21397); assay: MAO A inhibitory activity of Don Julio Añejo or 40% ethanol spiked with terpenes; format: biochemical; conditions: terpene at 0.5% (v/v) in tequila (40% ABV) and in 40% ethanol
T2 sequence (P21397 1-527): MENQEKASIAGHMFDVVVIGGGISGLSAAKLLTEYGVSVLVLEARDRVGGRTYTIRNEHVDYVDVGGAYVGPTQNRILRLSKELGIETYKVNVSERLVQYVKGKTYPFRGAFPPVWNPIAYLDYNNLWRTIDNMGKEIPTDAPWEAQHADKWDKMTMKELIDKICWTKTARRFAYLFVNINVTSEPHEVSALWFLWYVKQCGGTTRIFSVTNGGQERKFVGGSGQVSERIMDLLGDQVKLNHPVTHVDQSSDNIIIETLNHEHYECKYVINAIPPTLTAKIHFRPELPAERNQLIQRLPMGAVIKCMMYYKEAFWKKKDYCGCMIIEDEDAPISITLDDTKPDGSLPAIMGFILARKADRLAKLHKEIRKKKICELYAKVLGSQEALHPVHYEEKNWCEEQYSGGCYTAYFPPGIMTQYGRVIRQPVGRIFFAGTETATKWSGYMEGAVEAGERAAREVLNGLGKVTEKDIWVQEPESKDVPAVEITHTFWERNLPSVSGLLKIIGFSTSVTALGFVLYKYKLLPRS
Method: as §1

| Δ % Inhibition MAO B (DJA + terpene) − (ETOH + terpene) (MAO B) | Δ % Inhibition MAO A (DJA + terpene) − (ETOH + terpene) (MAO A) | Molecule |
| --- | --- | --- |
| 20% | 9% | C=C(C)[C@@H]1CCC2=CCC[C@@H](C)[C@]2(C)C1 [valencene] |
| 9% | 4% | Geramol |
